# Experimental data published in patent publication US20250163006A1, “New Coolants, and Preparations Containing Same” (Symrise AG, priority 2022, published 2025).
# Target: T1, human TRPM8 receptor (Homo sapiens, UniProt Q7Z2W7)
# T1 construct: expressed in transfected cells; host or cells: HEK293, stably transfected, tetracycline-inducible expression
# Test: Assay on TRPM8 modulators: Ca2+-sensitive dye (Fluo-4) fluorescence in HEK293-TRPM8 test cells
# Type: cell-based
# Parameters: relative TRPM8 activation: concentration or dose not given beside the values
# Details: HEK293 cells recombinantly expressing human TRPM8
# Text: The starting point for cloning the human TRPM8 receptor is an LnCaP cDNA bank. This is commercially available (e.g. BioChain, Hayward, USA) or can be produced from the andro gene-sensitive human prostate adenocarcinoma cell line LnCaP (e.g. ATCC, CRL1740 or ECACC, 891 1021 1) using standard kits.
# The coding TRPM8 sequence (see e.g. http://www. ncbi.nlm.nih.gov/entrez/viewer.fcgi?db=nuccore&id=109689694) can be PCR-amplified and cloned using standard methods. The human TRPM8 gene isolated in this way was used to produce the plasmid plnd_M8. Alternatively, the TRPM8 gene can also be produced synthetically.
# A stably transfected HEK293 cell line was produced as a test cell system using human TRPM8 DNA. Preference was given to HEK293, which offers the possibility of inducing TRPM8 expression using tetracycline via the plasmid introduced.
# A test similar to the test already described in the literature by Behrendt H. J. et al, Br. J. Pharmacol. 141, 2004, 737-745, is performed. The agonization or antagonization of the receptor can be quantified using a Ca^2+-sensitive dye (e.g. FURA, Fluo-4 etc.). Agonists alone cause an increase in the Ca^2+ signal; antagonists cause a reduction in the Ca^2+ signal in the presence of e.g. menthol (detected in each case using the Fluo-4 dye, which has different fluorescence properties due to Ca^2+ ions).
# First, a fresh culture of transformed HEK cells is prepared in cell culture flasks in the usual way. The HEK293-TRPM8 test cells are detached from the cell culture flasks using trypsin and 40,000 cells/well are seeded with 100 μl medium in 96-well plates (Greiner #655948 poly-D-lysine-coated). To induce the TRPM8 receptor, tetracycline is added to the growth medium (DMEM/HG, 10% FCS tetracycline-free, 4 mM L-glutamine, 15 μg/ml blasticidin, 100 μg/ml hygromycin B, 1 μg/ml tetracycline).
# On the following day, the cells are loaded with Fluo-4AM dye and the test is performed. Proceed as follows: Addition of 100 μl/well staining solution Ca-4 kit (RB 141, Molecular Devices) to each 100 μl medium (DMEM/HG, 10% FCS tetracycline-free, 4 mM L-glutamine, 15 μg/ml blasticidin, 100 μg/ml hygromycin B, 1 μg/ml tetracycline).
# Incubation in incubator, 30 minutes/37° C./5% CO2, 30 minutes/RT.
# Preparation of the test substances (different concentrations in 200 μl HBSS buffer), as well as positive controls (different concentrations of menthol, icilin or lonomycin in 200 μl HBSS buffer) and negative controls (only 200 μl HBSS buffer) Addition of the test substances in quantities of 50 μl/well and measurement of the fluorescence change (e.g. in the assay device FLIPR, Molecular Devices or NovoStar, BMG) at 485 nm excitation, 520 nm emission, and evaluation of the potency of the different substances/concentrations and determination of the ECG. e.g. in the FLIPR assay device, Molecular Devices or NovoStar, BMG) at 485 nm excitation, 520 nm emission, and evaluation of the potency of the various substances/concentrations and determination of the EC50 values.
# The test substances are used in triplicates in concentrations of 0.1-200 μM in the assay. Normally, the compounds are kept ready in DMSO solutions and diluted down to a maximum DMSO concentration of 2% for the assay.
# The activity of the active substances in relation to activation of the TRPM8 channel is determined using the assay described. This is done in a concentration-dependent manner. For each active substance, 6 to 10 concentrations are measured as standard. A mathematical method (4-parameter or 5-parameter logistic curve fitting) can be used to determine the EC50 value as the inflection point of the sigmoidal curve from the activity values determined. These are standard biochemical methods that are familiar to experts.
# T1 sequence (Q7Z2W7 whole entry): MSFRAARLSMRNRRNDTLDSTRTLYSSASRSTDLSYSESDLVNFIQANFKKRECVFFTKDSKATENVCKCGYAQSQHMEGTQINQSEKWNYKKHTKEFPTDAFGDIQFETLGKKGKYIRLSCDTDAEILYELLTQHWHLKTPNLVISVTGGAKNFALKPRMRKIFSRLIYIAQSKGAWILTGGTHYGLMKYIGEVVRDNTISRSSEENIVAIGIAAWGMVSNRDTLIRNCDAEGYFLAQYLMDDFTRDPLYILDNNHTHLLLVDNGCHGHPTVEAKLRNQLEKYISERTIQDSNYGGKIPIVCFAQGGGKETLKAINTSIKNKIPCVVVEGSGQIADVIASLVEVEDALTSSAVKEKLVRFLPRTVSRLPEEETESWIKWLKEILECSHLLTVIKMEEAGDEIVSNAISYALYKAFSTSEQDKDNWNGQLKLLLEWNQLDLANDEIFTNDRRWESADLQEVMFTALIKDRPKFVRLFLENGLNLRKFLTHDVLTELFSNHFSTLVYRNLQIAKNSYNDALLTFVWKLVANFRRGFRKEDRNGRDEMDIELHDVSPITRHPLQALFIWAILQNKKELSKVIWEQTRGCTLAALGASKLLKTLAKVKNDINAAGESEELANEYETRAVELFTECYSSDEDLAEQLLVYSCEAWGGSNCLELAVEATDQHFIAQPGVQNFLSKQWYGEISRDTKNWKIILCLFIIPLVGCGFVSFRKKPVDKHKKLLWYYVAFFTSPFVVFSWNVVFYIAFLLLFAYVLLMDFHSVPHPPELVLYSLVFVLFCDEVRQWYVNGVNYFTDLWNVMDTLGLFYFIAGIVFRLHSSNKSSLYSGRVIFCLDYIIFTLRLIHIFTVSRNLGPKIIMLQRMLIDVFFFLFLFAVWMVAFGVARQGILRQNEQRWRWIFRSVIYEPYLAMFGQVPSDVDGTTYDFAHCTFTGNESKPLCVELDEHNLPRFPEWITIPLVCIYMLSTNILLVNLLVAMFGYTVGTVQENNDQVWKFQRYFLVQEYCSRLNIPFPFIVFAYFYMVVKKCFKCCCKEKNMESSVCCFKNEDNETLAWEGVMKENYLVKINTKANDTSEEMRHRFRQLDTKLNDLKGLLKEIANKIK
row,Structure (SMILES),relative TRPM8 activation [%]
1,"OCCSc1nc(-c2ccccc2)c(-c2ccccc2)o1 [Compound A-60, 2-(4,5-diphenyloxazol-2-yl) sulfanylethanol]",0
2,"COc1ccc(-c2nc(SCC(=O)NC3CC3)oc2-c2ccc(OC)cc2)cc1 [Compound A-58, 2-[4,5-bis(4-methoxyphenyl)oxazol-2-yl]sulfanyl-N-cyclopropyl-acetamide]",1
3,"CNCCc1nc(-c2ccccc2)c(-c2ccccc2)o1.Cl [Compound A-62, 2-(4,5-diphenyloxazol-2-yl)ethyl-methyl-ammonium; chloride]",0
4,"CNC(=O)C(C)Sc1nc(-c2ccc(OC)cc2)c(-c2ccc(OC)cc2)o1 (stereo not drawn) [Compound A-69, 2-[4,5-bis(4-methoxyphenyl)oxazol-2-yl]sulfanyl-N-methyl-propanamide]",−2
5,"Cc1nc(SC(C)C(=O)NC2CC2)[nH]c1C (stereo not drawn) [Compound A-56, N-cyclopropyl-2-[(4,5-dimethyl-1H-imidazol-2-yl)sulfanyl] propanamide]",1
6,"CNC(=O)CSc1nc(-c2ccc(C)cc2)c(-c2ccc(C)cc2)o1 [Compound A-68, 2-[4,5-bis(p-tolyl)oxazol-2-yl]sulfanyl-N-methyl-acetamide]",−2
7,"CCCC(C)NC(=O)CSc1nc(-c2ccccc2)c(-c2ccccc2)o1 (stereo not drawn) [Compound A-52, 2-(4,5-diphenyloxazol-2-yl)sulfanyl-N-(1-methylbutyl) acetamide]",1
8,"CNC(=O)CCSc1ncco1 [Compound A-45, N-methyl-3-oxazol-2-ylsulfanyl-propanamide]",2
9,"CNC(=O)CCSc1nc(-c2ccccc2)c(-c2ccccc2)o1 [Compound A-49, 3-(4,5-diphenyloxazol-2-yl)sulfanyl-N-methyl-propanamide]",2
10,"O=C(CSc1ncco1)NC1CC1 [Compound A-66, N-cyclopropyl-2-oxazol-2-ylsulfanyl-acetamide]",−1
11,"CC(Sc1nc(-c2ccccc2)c(-c2ccccc2)o1)C(=O)NC1CCCC1 (stereo not drawn) [Compound A-30, N-cyclopentyl-2-(4,5-diphenyloxazol-2-yl)sulfanyl-propanamide]",26
12,"CC(C)C(C)NC(=O)CSc1nc(-c2ccccc2)c(-c2ccccc2)o1 (stereo not drawn) [Compound A-46, N-(1,2-dimethylpropyl)-2-(4,5-diphenyloxazol-2-yl)sulfanyl-acetamide]",2
13,"COC(=O)CCc1nc(-c2ccccc2)c(-c2ccccc2)o1 [Compound A-73, methyl 3-(4,5-diphenyloxazol-2-yl)propanoate]",−5

# Continued, values first:
row,relative TRPM8 activation [%],Structure (SMILES)
1,40,"CCCCSc1nnc(-c2ccccc2)c(-c2ccccc2)n1 [Compound B-31, 3-butylsulfanyl-5,6-diphenyl-1,2,4-triazine]"
2,20,"CN(C)CCSc1nnc(-c2ccccc2)c(-c2ccccc2)n1 [Compound B-36, 2-[(5,6-diphenyl-1,2,4-triazin-3-yl)sulfanyl]-N,N-dimethyl-ethanamine]"
3,1,"CNC(=O)C(C)Sc1cnccn1 (stereo not drawn) [Compound B-59, N-methyl-2-pyrazine-2-ylsulfanyl-propanamide]"
4,2,"NC(=O)Nc1nnc(-c2ccccc2)c(-c2ccccc2)n1 [Compound B-56, (5,6-diphenyl-1,2,4-triazin-3-yl)urea]"
5,−3,"CSc1nnc(-c2ccccc2)c(-c2ccccc2)n1 [Compound B-64, 3-methylsulfanyl-5,6-diphenyl-1,2,4-triazine]"

# Same assay, conditions: TRPM8 activation, HEK293-TRPM8 cells, 6 to 10 concentrations, logistic curve fitting; read-out: EC50 value
row,EC50 [µM],Structure (SMILES)
1,≤ 1,"CNC(=O)CSc1cnc(-c2ccccc2)c(-c2ccccc2)n1 [Compound B-04, 2-(5,6-diphenylpyrazin-2-yl)sulfanyl-N-methyl-acetamide]"
2,≤ 1,"CCC(Sc1nnc(-c2ccccc2)c(-c2ccccc2)n1)C(=O)N(C)C (stereo not drawn) [Compound B-05, 2-[(5,6-diphenyl-1,2,4-triazin-3-yl)sulfanyl]-N,N-dimethyl-butanamide]"

# Same assay, conditions: Table 5; HEK293-TRPM8 cells; read-out: TRPM8 EC50
row,EC50 [µM],Structure (SMILES)
1,0.37,"CNC(=O)CSc1cnc(-c2ccccc2)c(-c2ccccc2)n1 [Compound B-04, 2-(5,6-diphenylpyrazin-2-yl)sulfanyl-N-methyl-acetamide]"
2,0.1,"CCC(Sc1nnc(-c2ccccc2)c(-c2ccccc2)n1)C(=O)N(C)C (stereo not drawn) [Compound B-05, 2-[(5,6-diphenyl-1,2,4-triazin-3-yl)sulfanyl]-N,N-dimethyl-butanamide]"

# Same assay, conditions: Table 7; HEK293-TRPM8 cells; read-out: TRPM8 EC50
row,EC50 [µM],Structure (SMILES)
1,0.37,"CNC(=O)CSc1cnc(-c2ccccc2)c(-c2ccccc2)n1 [Compound B-04, 2-(5,6-diphenylpyrazin-2-yl)sulfanyl-N-methyl-acetamide]"
2,0.1,"CCC(Sc1nnc(-c2ccccc2)c(-c2ccccc2)n1)C(=O)N(C)C (stereo not drawn) [Compound B-05, 2-[(5,6-diphenyl-1,2,4-triazin-3-yl)sulfanyl]-N,N-dimethyl-butanamide]"
